Each block holds one compound with its values, some of them ahead of it.
Legend:
[1] = molecular target: 5'-AMP-activated protein kinase catalytic subunit alpha-1 (Homo sapiens, UniProt Q13131); assay: Selectivity interaction (KinomeScan (DiscoverX)) EUB0000311b PRKAA1; conditions: at 1 µM
Aurora kinase B = Aurora kinase B (Homo sapiens, UniProt Q96GD4); assay: Selectivity interaction (Panel of kinases, GPCRs, ion channels and transporters (enzymatic assay)) EUB0000266bCl AURKB
[2] = molecular target: T1, Dual specificity mitogen-activated protein kinase kinase 5 (Homo sapiens) (UniProt Q13163); assay: Selectivity interaction (ProQinase) EUB0000171b MAP2K5
T1 sequence (whole entry): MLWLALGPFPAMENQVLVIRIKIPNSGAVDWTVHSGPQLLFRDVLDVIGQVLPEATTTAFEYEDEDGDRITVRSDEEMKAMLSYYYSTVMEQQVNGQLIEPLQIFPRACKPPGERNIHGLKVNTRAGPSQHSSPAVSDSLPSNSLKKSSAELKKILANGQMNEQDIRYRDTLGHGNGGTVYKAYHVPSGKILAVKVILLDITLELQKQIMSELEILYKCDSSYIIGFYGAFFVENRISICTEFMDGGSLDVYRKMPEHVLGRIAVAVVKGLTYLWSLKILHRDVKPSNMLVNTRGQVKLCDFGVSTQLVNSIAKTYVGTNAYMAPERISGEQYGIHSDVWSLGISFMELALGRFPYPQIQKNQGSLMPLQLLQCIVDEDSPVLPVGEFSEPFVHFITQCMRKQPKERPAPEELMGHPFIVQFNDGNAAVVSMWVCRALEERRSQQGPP

[3] = molecular target: Dual specificity protein kinase CLK4 (Homo sapiens, UniProt Q9HAZ1); assay: Selectivity interaction (KinomeScan (DiscoverX)) EUB0001049a CLK4; conditions: at 1 µM
[4] = molecular target: T2, Mitogen-activated protein kinase kinase kinase 12 (Homo sapiens) (UniProt Q12852); assay: Selectivity interaction (KinomeScan (DiscoverX)) EUB0001049a MAP3K12; conditions: at 1 µM
T2 sequence (whole entry): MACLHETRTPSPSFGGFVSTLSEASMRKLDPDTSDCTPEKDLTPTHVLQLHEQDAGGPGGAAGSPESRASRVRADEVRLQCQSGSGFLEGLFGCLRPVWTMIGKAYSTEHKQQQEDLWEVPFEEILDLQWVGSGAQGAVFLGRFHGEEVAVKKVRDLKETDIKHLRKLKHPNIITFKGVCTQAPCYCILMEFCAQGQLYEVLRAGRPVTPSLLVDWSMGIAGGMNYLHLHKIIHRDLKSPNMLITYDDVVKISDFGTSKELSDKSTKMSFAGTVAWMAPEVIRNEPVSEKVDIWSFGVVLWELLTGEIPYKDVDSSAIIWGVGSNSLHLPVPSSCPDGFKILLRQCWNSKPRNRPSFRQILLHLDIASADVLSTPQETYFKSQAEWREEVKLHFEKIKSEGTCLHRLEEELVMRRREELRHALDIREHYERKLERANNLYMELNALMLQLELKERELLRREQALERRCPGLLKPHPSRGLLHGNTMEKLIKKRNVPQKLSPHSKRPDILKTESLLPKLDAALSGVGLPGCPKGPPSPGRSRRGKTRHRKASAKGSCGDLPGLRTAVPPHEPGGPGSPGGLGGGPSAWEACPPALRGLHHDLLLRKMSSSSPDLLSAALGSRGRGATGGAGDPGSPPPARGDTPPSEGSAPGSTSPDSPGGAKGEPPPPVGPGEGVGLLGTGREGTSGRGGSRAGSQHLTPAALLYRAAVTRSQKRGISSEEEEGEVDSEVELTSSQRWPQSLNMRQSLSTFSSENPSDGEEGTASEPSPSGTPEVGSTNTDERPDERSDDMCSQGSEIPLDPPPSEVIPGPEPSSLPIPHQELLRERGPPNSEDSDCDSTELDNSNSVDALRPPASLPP

[5] = system: Epidermal growth factor receptor (Homo sapiens), P00533 [UNDEFINED MUTATION]; assay: Selectivity interaction (KinomeScan (DiscoverX)) EUB0000655a EGFR; conditions: at 10 µM
Histamine H1 receptor = Histamine H1 receptor (Homo sapiens, UniProt P35367); assay: Selectivity interaction (GPCR panel (PDSP screen)) EUB0001079a HRH1; conditions: at 10 µM
[6] = molecular target: Calcium/calmodulin-dependent protein kinase type II subunit gamma (Homo sapiens) (UniProt Q13555); assay: Selectivity interaction (Kinase panel (KiNativ target engagement assay in Jurkat cells)) EUB0001635a CAMK2G; format: cell-based; conditions: Selectivity number of off-targets 0.0, Selectivity number of targets 233.0, Source Knowledge https://www.sciencedirect.com/science/article/pii/S2451945619300674?via%3Dihub, at 1 µM
[7] = molecular target: T3, Serine/threonine-protein kinase Sgk3 (Homo sapiens) (UniProt Q96BR1); assay: Selectivity interaction (KinomeScan (DiscoverX)) EUB0000229b SGK3; conditions: at 10 µM
T3 sequence (whole entry): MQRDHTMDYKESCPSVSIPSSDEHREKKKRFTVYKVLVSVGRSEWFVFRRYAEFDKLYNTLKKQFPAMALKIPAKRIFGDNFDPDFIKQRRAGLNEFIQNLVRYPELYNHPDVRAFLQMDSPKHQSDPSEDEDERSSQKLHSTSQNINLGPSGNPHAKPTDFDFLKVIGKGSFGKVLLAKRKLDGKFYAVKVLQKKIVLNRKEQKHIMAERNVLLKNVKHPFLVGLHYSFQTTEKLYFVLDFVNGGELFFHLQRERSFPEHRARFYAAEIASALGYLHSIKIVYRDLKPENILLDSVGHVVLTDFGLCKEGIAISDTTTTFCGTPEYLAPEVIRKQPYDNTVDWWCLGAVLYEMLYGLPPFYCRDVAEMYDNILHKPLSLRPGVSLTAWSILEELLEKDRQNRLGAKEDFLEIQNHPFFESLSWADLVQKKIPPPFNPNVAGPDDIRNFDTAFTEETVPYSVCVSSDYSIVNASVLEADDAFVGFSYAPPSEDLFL

[8] = molecular target: Bone morphogenetic protein receptor type-1A (Homo sapiens, UniProt P36894); assay: Selectivity interaction (KinomeScan (DiscoverX)) EUB0000229b BMPR1A; conditions: at 10 µM
[9] = molecular target: Phosphorylase b kinase gamma catalytic chain, skeletal muscle/heart isoform (Homo sapiens) (UniProt Q16816); assay: Selectivity interaction (KinomeScan (DiscoverX)) EUB0000092b PHKG1; conditions: at 10 µM
[10] = system: Hepatocyte growth factor receptor (Homo sapiens), P08581 [Y1235D]; assay: (§1) Selectivity interaction (KinomeScan (DiscoverX)) EUB0000618a MET; conditions: at 10 µM
[11] = system: Hepatocyte growth factor receptor (Homo sapiens), P08581 [M1250T]; assay: as §1; conditions: at 10 µM
[12] = molecular target: Hepatocyte growth factor receptor (Homo sapiens, UniProt P08581); assay: as §1; conditions: at 10 µM
[13] = molecular target: Dual specificity mitogen-activated protein kinase kinase 2 (Homo sapiens) (UniProt P36507); assay: Selectivity interaction (KinomeScan (DiscoverX)) EUB0000618a MAP2K2; conditions: at 10 µM
[14] = molecular target: Myosin light chain kinase, smooth muscle (Homo sapiens, UniProt Q15746); assay: Selectivity interaction (ActivX KiNativ screen (ex vivo kinase selectivity in human PBMCs)) EUB0001619a MYLK; format: cell-based; conditions: PBMC, at 1 µM

Chain of 5'-AMP-activated protein kinase catalytic subunit alpha-1 (Q13131 whole entry, looked up): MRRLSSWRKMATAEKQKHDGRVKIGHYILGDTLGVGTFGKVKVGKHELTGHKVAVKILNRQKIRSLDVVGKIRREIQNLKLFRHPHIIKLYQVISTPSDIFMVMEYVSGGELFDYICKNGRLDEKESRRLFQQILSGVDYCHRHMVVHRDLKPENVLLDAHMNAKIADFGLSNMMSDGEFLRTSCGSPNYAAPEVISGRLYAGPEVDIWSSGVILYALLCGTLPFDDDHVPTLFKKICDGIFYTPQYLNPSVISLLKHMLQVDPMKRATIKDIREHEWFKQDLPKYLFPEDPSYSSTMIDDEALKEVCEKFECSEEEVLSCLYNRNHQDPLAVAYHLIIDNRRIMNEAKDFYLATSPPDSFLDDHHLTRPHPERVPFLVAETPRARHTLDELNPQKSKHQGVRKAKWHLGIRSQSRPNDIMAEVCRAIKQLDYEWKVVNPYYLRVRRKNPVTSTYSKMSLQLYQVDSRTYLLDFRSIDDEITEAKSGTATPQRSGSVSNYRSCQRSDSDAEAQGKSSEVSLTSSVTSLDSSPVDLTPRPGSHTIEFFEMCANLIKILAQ
Chain of Dual specificity protein kinase CLK4 (Q9HAZ1 whole entry, looked up): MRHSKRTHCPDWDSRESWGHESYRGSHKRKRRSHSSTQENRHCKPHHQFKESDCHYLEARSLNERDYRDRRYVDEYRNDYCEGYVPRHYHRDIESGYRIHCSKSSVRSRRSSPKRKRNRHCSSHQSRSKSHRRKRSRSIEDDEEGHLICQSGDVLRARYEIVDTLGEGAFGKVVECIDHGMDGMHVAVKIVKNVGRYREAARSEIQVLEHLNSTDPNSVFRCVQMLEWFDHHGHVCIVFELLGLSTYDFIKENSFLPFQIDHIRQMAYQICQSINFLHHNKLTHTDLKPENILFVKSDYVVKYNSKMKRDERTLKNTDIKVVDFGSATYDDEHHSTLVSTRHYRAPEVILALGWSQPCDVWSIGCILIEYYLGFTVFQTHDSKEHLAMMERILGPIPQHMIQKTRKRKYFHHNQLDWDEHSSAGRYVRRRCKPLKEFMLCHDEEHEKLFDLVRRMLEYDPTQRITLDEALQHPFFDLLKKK
Chain of Histamine H1 receptor (P35367 whole entry): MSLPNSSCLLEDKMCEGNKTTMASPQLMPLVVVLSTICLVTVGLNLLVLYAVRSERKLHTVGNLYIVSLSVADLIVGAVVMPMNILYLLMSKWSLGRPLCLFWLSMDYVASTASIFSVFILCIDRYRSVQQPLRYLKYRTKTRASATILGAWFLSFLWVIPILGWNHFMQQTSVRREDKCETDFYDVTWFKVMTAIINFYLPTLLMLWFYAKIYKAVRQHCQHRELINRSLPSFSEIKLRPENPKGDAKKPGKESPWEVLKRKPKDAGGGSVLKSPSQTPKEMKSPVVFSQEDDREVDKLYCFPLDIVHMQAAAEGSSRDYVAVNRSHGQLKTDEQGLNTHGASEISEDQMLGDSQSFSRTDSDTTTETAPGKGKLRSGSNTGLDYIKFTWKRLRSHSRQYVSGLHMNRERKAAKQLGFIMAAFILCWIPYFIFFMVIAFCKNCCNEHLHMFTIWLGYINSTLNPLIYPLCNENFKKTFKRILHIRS
Chain of Hepatocyte growth factor receptor (Homo sapiens), P08581 [M1250T] (P08581 whole entry M1250T): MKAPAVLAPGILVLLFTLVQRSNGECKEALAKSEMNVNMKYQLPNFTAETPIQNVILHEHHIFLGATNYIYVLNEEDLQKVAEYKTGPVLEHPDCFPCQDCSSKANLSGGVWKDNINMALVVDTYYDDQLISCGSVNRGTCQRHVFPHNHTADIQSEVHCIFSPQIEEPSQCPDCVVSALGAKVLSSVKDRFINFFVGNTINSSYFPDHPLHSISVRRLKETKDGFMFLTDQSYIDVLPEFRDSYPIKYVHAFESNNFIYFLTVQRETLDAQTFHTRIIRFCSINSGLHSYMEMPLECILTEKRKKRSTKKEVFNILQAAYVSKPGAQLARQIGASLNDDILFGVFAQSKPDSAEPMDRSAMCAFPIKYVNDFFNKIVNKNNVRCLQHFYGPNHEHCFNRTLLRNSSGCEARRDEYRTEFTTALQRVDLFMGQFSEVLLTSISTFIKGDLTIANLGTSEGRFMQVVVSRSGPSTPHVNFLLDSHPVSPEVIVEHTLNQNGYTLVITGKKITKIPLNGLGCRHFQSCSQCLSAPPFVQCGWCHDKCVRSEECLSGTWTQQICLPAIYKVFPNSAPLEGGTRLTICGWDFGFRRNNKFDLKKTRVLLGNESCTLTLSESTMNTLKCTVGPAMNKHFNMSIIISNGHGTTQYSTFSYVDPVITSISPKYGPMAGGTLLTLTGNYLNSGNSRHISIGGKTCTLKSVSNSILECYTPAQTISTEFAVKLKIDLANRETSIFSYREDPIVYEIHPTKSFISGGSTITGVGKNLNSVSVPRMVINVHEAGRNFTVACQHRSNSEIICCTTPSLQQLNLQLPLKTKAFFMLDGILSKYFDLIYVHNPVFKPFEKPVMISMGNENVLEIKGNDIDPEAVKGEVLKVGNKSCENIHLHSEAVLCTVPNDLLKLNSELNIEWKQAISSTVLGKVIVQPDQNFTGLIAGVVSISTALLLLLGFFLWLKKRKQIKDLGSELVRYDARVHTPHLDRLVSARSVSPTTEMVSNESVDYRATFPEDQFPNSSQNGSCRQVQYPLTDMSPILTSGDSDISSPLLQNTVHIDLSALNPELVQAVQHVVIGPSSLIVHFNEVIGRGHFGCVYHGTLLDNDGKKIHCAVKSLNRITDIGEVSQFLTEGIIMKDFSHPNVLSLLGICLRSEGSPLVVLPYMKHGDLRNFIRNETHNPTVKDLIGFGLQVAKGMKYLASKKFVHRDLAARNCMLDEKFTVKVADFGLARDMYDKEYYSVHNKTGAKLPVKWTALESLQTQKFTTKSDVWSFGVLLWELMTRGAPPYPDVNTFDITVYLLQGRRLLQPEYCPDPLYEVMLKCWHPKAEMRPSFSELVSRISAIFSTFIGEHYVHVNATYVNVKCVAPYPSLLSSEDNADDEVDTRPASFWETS
Chain of Hepatocyte growth factor receptor (Homo sapiens), P08581 [Y1235D] (P08581 whole entry Y1235D): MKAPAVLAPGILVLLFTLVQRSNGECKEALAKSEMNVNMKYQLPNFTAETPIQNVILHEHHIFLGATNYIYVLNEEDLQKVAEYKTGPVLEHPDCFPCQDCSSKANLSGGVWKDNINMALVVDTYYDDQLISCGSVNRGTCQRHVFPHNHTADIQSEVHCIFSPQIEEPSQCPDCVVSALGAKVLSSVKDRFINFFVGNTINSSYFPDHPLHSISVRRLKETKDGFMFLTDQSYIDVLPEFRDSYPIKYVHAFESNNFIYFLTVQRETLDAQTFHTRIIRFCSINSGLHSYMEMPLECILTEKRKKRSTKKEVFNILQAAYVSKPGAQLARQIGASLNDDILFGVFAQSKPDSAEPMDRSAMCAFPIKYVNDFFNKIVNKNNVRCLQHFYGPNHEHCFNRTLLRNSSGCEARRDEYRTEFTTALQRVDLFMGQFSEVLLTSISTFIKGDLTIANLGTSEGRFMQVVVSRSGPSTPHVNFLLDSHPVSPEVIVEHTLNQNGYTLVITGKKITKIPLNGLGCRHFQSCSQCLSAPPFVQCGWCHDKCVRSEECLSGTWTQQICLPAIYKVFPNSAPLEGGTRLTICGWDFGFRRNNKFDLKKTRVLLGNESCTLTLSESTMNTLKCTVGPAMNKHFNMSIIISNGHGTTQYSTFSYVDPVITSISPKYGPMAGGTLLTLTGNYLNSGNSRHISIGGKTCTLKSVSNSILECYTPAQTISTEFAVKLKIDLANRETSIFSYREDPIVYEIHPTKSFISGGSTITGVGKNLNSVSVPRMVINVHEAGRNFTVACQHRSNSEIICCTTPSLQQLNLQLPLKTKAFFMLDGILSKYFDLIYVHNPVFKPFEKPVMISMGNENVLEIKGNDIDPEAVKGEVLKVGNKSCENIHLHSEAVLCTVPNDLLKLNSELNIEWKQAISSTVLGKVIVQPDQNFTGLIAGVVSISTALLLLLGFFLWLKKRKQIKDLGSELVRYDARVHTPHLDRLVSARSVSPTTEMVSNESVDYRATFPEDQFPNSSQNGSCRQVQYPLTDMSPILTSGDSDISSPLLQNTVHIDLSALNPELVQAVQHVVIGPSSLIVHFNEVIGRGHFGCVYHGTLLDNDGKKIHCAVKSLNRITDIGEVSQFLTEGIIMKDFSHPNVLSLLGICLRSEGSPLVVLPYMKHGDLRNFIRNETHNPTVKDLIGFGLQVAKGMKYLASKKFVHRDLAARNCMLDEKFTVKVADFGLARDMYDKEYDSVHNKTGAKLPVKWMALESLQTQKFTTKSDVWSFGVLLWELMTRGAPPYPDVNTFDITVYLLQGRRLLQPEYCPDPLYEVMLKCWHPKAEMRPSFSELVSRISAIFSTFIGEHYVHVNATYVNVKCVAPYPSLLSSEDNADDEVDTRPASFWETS
Chain of Bone morphogenetic protein receptor type-1A (P36894 whole entry, canonical isoform): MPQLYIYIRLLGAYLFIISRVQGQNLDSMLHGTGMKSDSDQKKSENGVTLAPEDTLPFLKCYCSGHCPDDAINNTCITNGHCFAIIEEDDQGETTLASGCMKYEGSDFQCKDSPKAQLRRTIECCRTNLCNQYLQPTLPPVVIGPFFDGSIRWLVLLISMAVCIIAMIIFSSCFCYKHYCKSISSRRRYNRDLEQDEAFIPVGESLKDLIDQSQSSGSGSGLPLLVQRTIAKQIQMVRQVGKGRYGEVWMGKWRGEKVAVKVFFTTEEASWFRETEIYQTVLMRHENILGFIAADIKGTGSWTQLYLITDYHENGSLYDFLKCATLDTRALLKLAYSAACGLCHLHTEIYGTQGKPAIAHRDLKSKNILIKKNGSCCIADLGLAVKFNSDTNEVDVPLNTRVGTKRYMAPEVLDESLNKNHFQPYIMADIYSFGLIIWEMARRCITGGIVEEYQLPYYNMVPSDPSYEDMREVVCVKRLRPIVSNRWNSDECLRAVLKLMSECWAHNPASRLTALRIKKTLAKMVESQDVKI

% of control [1]: 7.5%
Structure (SMILES): CCc1ccccc1C(=O)Nc1n[nH]c2c(C)c(F)c(C3C(C#N)=C(C)N(C)C(C)=C3C#N)cc12 [BAY-3827]

pXC50 (Aurora kinase B): < 4.5 M
Structure (SMILES): CCn1c(-c2nc3cc(C(=O)N4CCCC(N)C4)ccc3n2C)cc2ccccc21 (configuration not stated)

% of control ([2]; at 1 µM): 87%
% of control ([2]; at 5 µM): 60%
Structure (SMILES): C=CC(=O)Nc1cccc(C(=O)Nc2ccc(Nc3cc(-c4[nH]c(SC)nc4C)ccn3)cc2)c1

Structure (SMILES): COc1cc(Nc2nc(C)cc(-c3cnn4nc(OC)ccc34)n2)cc(C(F)(F)F)c1
% of control [3]: 98%
% of control [4]: 92%

Structure (SMILES): CN(C)CCOc1ccc(-c2nc(-c3ccncc3)c(-c3ccc4c(c3)CC/C4=N\O)[nH]2)cc1
% of control [5]: 67%

Structure (SMILES): Nc1cnc(N2CCc3cc(S(=O)(=O)Nc4c(F)cc(Cl)cc4F)cc(N4CCCC4=O)c32)nc1 [TP-020n]
% of inhibition (Histamine H1 receptor): 8.19%

Structure (SMILES): C=CC(=O)Nc1ccc(C(=O)Nc2[nH]nc3c2CN(C(=O)N[C@H](CN(C)C)c2ccccc2)C3(C)C)cc1
% of engagement [6]: 35.8%

Structure (SMILES): COc1cc(N(C)c2ccnc3ccc(C(F)(F)F)cc23)cc(OC)c1OC
% binding [7]: 79%
% binding [8]: 76%

Structure (SMILES): CCC(=O)N1CCN(c2ccc(-n3c(=O)ccc4cnc5ccc(-c6cnc7ccccc7c6)cc5c43)cc2C(F)(F)F)CC1
% of control [9]: 100%

Structure (SMILES): O[C@H]1CC[C@H](Nc2ncc3nc(Nc4c(F)cc(F)cc4F)n([C@H]4CCOC4)c3n2)CC1
% of control [10]: 100%
% of control [11]: 100%
% of control [12]: 100%
% of control [13]: 100%

Structure (SMILES): N#Cc1cccc(-c2c[nH]c3ncnc(N4CCOCC4)c23)c1
% of inhibition [14]: 16%
